Where only a bound is given, the exact number is not on record here.

In assay [1] the test system is Amaranthus caudatus cotyledon/hypocotyl explants. In words: Amaranthus bioassay (betacyanin content). More on the design: species or system Amaranthus caudatus var. atropurpurea. The method in brief: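 Amaranthus caudatus explants (cotyledons plus hypocotyl) from 72 h dark-grown seedlings were incubated in darkness on medium with 10 mmol Na2HPO4–KH2PO4 pH 6.8, 5 mmol tyrosine and test compound; stock was 10^−3 M in DMSO/water. Betacyanin was measured as A537−A620 and activity expressed relative to 10^−5 M BAP (100%).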

For assay [2], the system named is breast carcinoma cell line MCF-7. In words: In vitro cytotoxicity, Calcein AM assay. As to conditions: Homo sapiens, MCF7, 72 h, read-out: GI50 MCF7.
Description: (§1) Because only metabolically active cells cleave Calcein AM, these assays detect viable cells exclusively. The quantity of reduced Calcein AM corresponds to the number of vital cells in the culture.
(§2) The cells were maintained in Nunc/Corning 80 cm^2 plastic tissue culture flasks and cultured in cell culture medium (DMEM with 5 g/l glucose, 2 mM glutamine, 100 U/ml penicillin, 100 mg/ml streptomycin, 10% fetal calf serum and sodium bicarbonate).
(§3) The cell suspensions that were prepared and diluted according to the particular cell type and the expected target cell density (2,500-30,000 cells per well based on cell growth characteristics) were added by pipette (80 ml) into 96-well microtiter plates. Inoculates were allowed a pre-incubation period of 24 hours at 37° C. and 5% CO2 for stabilization. Four-fold dilutions of the intended test concentration were added at time zero in 20 ml aliquots to the microtiter plate wells. Usually, the compound tested was evaluated at six 4-fold dilutions. […] All drug concentrations were examined in duplicate. Incubations of cells with the tested compounds lasted for 72 hours at 37° C., in a 5% CO2 atmosphere and 100% humidity. At the end of the incubation period, the cells were assayed by using Calcein AM. Ten microliters of the stock solution were pipetted into each well and incubated for 1 hour. Fluorescence (FD) was measured with the Labsystem FIA Reader Fluoroscan Ascent (UK).
For assay [3], the system named is cytokinin-dependent tobacco callus Nicotiana tabacum L. cv. Wisconsin 38. In words: Cytokinin activity in tobacco callus bioassay. The format is cell-based.
Another assay relates to mouse fibroblasts NIH3T3. Nature of the assay: In vitro cytotoxicity, Calcein AM assay. As to conditions: Mus musculus, NIH3T3, 72 h, read-out: GI50 NIH-3T3.
Assay [4] concerns Human T-lymphoblastic leukemia cell line CEM. In words: In vitro cytotoxicity, Calcein AM assay. Particulars: Homo sapiens, 72 h, read-out: GI50 CEM.
Description: as §1, §2, §3
The subject of a further assay is human osteosarcoma HOS. Nature of the assay: In vitro cytotoxicity, Calcein AM assay. Particulars: Homo sapiens, 72 h, read-out: GI50 HOS.
Another assay concerns β-adrenergic receptors. Nature of the assay: Isoproterenol-induced cAMP synthesis in rat C6 glioma. The format is cell-based. As to conditions: cellular cAMP, simultaneous addition with isoproterenol, 30 min. As for the experimental part:
Anti-inflammatory activity. The compounds of formula 1 having anti-inflammatory activities can be used as cosmetics for treating inflammation skin disorders as atopic dermatitis, lichen planus, hyperpigmentation and Herpes simplex lesions. From this reason, rat C6 glioma (ATCC No. CCL107) was cultivated as a monolayer in a serum-free chemically defined medium containing Ham's F10-minimal essential medium (1:1 v/v), 2 mM L-glutamine, 1% (v/v) minimal essential medium vitamins (100×), 1% (v/v) minimal essential medium nonessential amino acids (100×), 100U/ml penicillin, […] streptomycin and 30 nM sodium selenite. Incubation was performed at 37° C. in a humidified atmosphere. The assays were performed in the logarithmic growth phase at a density of 2.5×10^5 cells/cm^2. Intracellular cAMP synthesis was induced by addition of […] (−)isoproterenol. After 30 min incubation at 37° C. the medium was removed and the cellular amount of cAMP was determined using the cAMP-enzyme immunoassay Amersham kit. The I50 value was determined from a dose-response curve in duplicate. The effect of the novel 6,9-disubstituted purines was measured after simultaneous addition with isoproterenol.
As P2Y1-like and A2 purinergic receptors, negatively and positively coupled to adenylate cyclase, respectively, are present in rat C6 glioma, it remains to be determined whether the modulation of the synthesis of cAMP is due to the inhibition of the activation of β-adrenergic receptors by isoproterenol, or due to the activation of purinergic receptors.

The test system of another assay is excised wheat leaf tips. In words: Antisenescence test, retention of chlorophyll in excised wheat leaf tips. More on the design: species or system Triticum aestivum cv. Hereward. The method in brief: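 Winter wheat seedlings (Triticum aestivum cv. Hereward) were raised on vermiculite with Knop's solution at 25° C. for 7 days. Tips of the first leaf, 35 mm long (five tips, 100 mg combined), stood in […] of test solution in microtiter wells. After 96 h in the dark at 25° C., chlorophyll was extracted in 80% ethanol at 80° C. and read at 665 nm. Activity is relative to 10^−4 M BAP (100%).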

The subject of assay [5] is promyelocytic HL-60 leukemia. Nature of the assay: In vitro cytotoxicity, Calcein AM assay. Particulars: Homo sapiens, HL-60, 72 h, read-out: GI50 HL60.
Description: as §1, §2, §3
Assay [6] has as its system human diploid fibroblasts (HCA cells, HCA20, HCA40, HCA60). Nature of the assay: Senescent cells (β-galactosidase staining) in culture of human fibroblasts. The assay is classed as cell-based. In a few lines:
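Fibroblasts taken at passages 20, 40 and 60 were washed and fixed for 5 min at room temperature in 2% formaldehyde/0.2% glutaraldehyde in PBS. After PBS washes, cells were incubated at 37 °C for β-galactosidase staining.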

Description for human osteosarcoma HOS: as §1, §2, §3
Description for mouse fibroblasts NIH3T3: as §1, §2, §3

As usually defined, the GI50 is the concentration at which growth is held to half of that of the control. For `Oc1ccc(CNc2ncnc3c2ncn3C2CCCCO2)cc1` (stereo not drawn) [6-(4-hydroxybenzylamino)-9-(tetrahydropyran-2-yl)purine], the “concentration with highest activity” value in assay [1] (betacyanin content after 48 h incubation, tested 10^−8 M to 10^−4 M) is reported as 10^−4 mol · l^−1; in assay [3] (growth of tobacco callus, four weeks of cultivation, tested 10^−8 M to 10^−4 M), 10^−5 mol · l^−1; in the assay on excised wheat leaf tips (retention of chlorophyll in excised wheat leaf tips, tested range 10^−8 M to 10^−4 M, 96 h in the dark at 25° C.), 10^−4 mol · l^−1. Moreover, the “Activity (%) [10^−5 mol · l^−1 BAP = 100%]” value in assay [1] (betacyanin content at the concentration with highest activity, 10^−5 M BAP = 100%) is given as 25.3%; in assay [3] (increase of fresh callus weight at the concentration with highest activity, 10^−5 M BAP = 100%), 36%. The GI50 (in assay [2]; with mouse fibroblasts NIH3T3; in assay [4]; in the assay with human osteosarcoma HOS; in assay [5]) was more than 167 µM throughout. For the same compound, the “Effect (modulation of the activity of β-adrenergic receptors)” value in the assay with β-adrenergic receptors is 1.8-fold fold activation. Moreover, the “activity (%) [10^−4 mol · l^−1 BAP = 100%]” value with excised wheat leaf tips (retention of chlorophyll in excised wheat leaf tips at the concentration with highest activity, 10 replicate determinations) came to 10.1%. Further, the “SENESCENT CELLS (%) HCA20” value in [6] (human fibroblasts passage 20 (HCA20)) is 5%. In addition, the “SENESCENT CELLS (%) HCA40” value in [6] (human fibroblasts passage 40 (HCA40)) amounted to 5%. Besides, in assay [6] (human fibroblasts passage 60 (HCA60)), the “SENESCENT CELLS (%) HCA60” value is listed as 16%.

(Values after patent publication US7960397B2, “6,9-disubstituted purine derivatives and their use as cosmetics and cosmetic compositions” (Institute of Experimental Botany, Academy of Sciences of …, priority 2007, dated 2011).)
